Data published in patent US8680109B2, “Combination product comprising SRC kinase inhibitor AZDO530 and an antioestrogen or EGFR-TK-inhibitor” (AstraZeneca AB, priority 2004, dated 2014).

Tests used:
[1] = system: human and/or mouse carcinomas grown as tumours in athymic nude mice; assay: Test (i) in vivo xenograft growth assays; conditions: AZD0530 used alone; oral once daily
Source text: (i) In Vivo Xenograft Growth Assays
This test measures the ability of combination product of the invention to inhibit the growth of human and/or mouse carcinomas grown as tumours in athymic nude mice. Suitable cancer cells for injection include human MCF7 breast cancer cells (obtainable from American Type Culture Collection, 10801 University Boulevard, Manassas, Va. 20110-2209; Cat. No. HTB-22), c-Src transfected mouse 3T3 fibroblast cancer cells (transfection with an activating mutant (Y530F) of human c-Src via a similar procedure to that described by Shalloway et al., Cell, 1987, 49, 65-73), human LoVo colorectal cancer cells (obtainable from European Collection of Cell Cultures, ECACC, CAMR, Salisbury, Wiltshire, SP4 0JG, UK; Cat. No. CCL 229), human CaLu-6 lung cancer cells (ATCC Cat. No. HTB-56) and human A549 NSCLC cancer cells (ATCC Cat. No. CCL185).
A total of about 1×10^6 human cancer cells in 0.1 ml of a 1:1 mixture of matrigel (Beckton Dickinson Catalogue No. 40234) and Eagle's Minimum Essential Medium (EMEM; Gibco Catalogue No 21090-022) were injected subcutaneously into a flank of each test mouse and the resultant tumours were allowed to grow for about 10 days. […] Tumour size was measured twice weekly using callipers and a theoretical volume was calculated. The effect on tumour growth was assessed.

[2] = system: human tumour cell line A549; assay: Test (h) in vitro microdroplet migration assay; assay type: cell-based; conditions: read-out: activity, Test (h) (migratory inhibitory IC50)
Description: (h) In Vitro Microdroplet Migration Assay
This assay determines the ability of a test compound (or combination of test compounds) to inhibit the migration of adherent mammalian cell lines, for example the human tumour cell line A549.
RPMI medium (Sigma) containing 10% FCS, 1% L-glutamine and 0.3% agarose (Difco Catalogue No. 0142-01) was warmed to 37° C. in a water bath. A stock 2% aqueous agar solution was autoclaved and stored at 42° C. An aliquot (1.5 ml) of the agar solution was added to RPMI medium (10 ml) immediately prior to its use. A549 cells (Accession No. ATCC CCL185) were suspended at a concentration of 2×10^7 cells/ml in the medium and maintained at a temperature of 37° C.
A droplet (2 μl) of the cell/agarose mixture was transferred by pipette into the centre of each well of a number of 96-well, flat bottomed non-tissue-culture-treated microtitre plate (Bibby Sterilin Catalogue No. 642000). The plates were placed briefly on ice to speed the gelling of the agarose-containing droplets. Aliquots (90 μl) of medium which had been cooled to 4° C. were transferred into each well, taking care not to disturb the microdroplets. Test compounds were diluted from a 10 mM stock solution in DMSO using RPMI medium as described above. […]
Migration was assessed visually and the distance of migration was measured back to the edge of the agar droplet. […]

'Tam-R' cells [3] = assay: Test (d) fibronectin cell migration assay; assay type: cell-based; conditions: Homo sapiens, 20 h; read-out: IC50 versus 'Tam-R' cells, Test (d) fibronectin cell migration
Description: (§1) ‘Tam-R’ MCF7 breast cancer cells were maintained in phenol red-free RPMI medium supplemented with 5% charcoal-stripped, steroid-depleted foetal calf serum, antibiotics as above, glutamine (200 mM) and 4-hydroxytamoxifen (10^−7M in ethanol).
(d) Fibronectin Cell Migration Assay
The polycarbonate filter membranes of Transwell chambers (6.5 mm diameter, 8.0 μm pore size from Costar Inc., Cambridge, Mass., USA) were coated on the underside of the membrane with 50 μg/ml fibronectin in serum-free RPMI for 2 hours at 37° C. The polycarbonate membranes were rinsed once with PBS. Cells were harvested and resuspended at a concentration of 5×10^5 cells per ml in serum-free RPMI. Aliquots of cells (100 μl; 5×10^4 cells) were seeded into each well to which 500 μl of experimental medium had been added. In control experiments, cells were allowed to migrate toward the underside of the membrane for 20 hours. In test experiments, appropriate concentrations of inhibitor compounds (or combinations of inhibitor compounds) were added and cells were allowed to migrate toward the underside of the membrane for 20 hours. […] The number of migrating cells was counted at 20-fold magnification using an inverted microscope.

[4] = system: MCF7 human breast cancer cells ('wild type', 'Tam-R', 'Tam/TKI-R'); assay: Test (a) cell growth studies; assay type: cell-based; conditions: MCF7, 168 h
Source text: Various test methods have been described by Knowlden et al., Endocrinology, 2003, 144, 1032-1044 and include one or more of:— • (i) tamoxifen-responsive ‘wild type’ MCF7 human breast cancer cells; • (ii) an endocrine-insensitive variant of such MCF7 breast cancer cells that was designated ‘Tam-R’ (tamoxifen-resistant); and • (iii) a variant of such ‘TAM-R’ cells that was also insensitive to treatment with the EGFR TKI ZD1839 that was designated ‘Tam/TKI-R’.
Tamoxifen-responsive ‘wild type’ MCF7 breast cancer cells were routinely cultured in phenol red-free RPMI medium supplemented with 5% foetal calf serum plus penicillin (10 IU/ml), streptomycin (10 μg/ml) and fungizone (2.5 μg/ml). Cultures were maintained at 37° C. in a humidified atmosphere with 5% CO2. […]
Cell monolayers were grown for 7 days in serum growth factor free DCCM medium in the presence of increasing concentrations of the individual components of the above-mentioned combinations or with the combinations themselves. Cell population growth was evaluated by means of trypsin dispersion of the cell monolayers and cell number was measured using a Beckman Coulter counter (available from Beckman Coulter Limited, Luton, GB). […]

[5] = system: MCF7 human breast cancer cells; assay: Test (f) cell attachment assay; assay type: cell-based
Description: (f) Cell Attachment Assay
The wells of a 96-well plate were coated with Matrigel (50 μg/well) and air-dried overnight in a sterile tissue culture hood. Cells growing in log phase were harvested and adjusted to a concentration of 2×10^5 cells per ml in culture medium containing appropriate concentrations of inhibitor compounds (or combinations of inhibitor compounds). Aliquots of cells (2×10^4 cells) were seeded into each well and the plate was incubated at 37° C. for 30 minutes. The wells were washed twice with PBS to remove unbound cells prior to the addition to each well of 150 μl of MTT solution (0.5 mg/ml in serum-free medium). Plates were incubated for a further 4 hours at 37° C. to allow the development of […] crystals within the cells. The MTT solution was removed from the wells and the dye was extracted at 4° C. overnight with 10% TX-100 solution. The absorbance was measured with a Titerteck Multiskan ELISA plate reader (Flow Laboratories, UK) equipped with a 540 nm filter. Cell attachment in response to the treatments was calculated as a percentage of the cells adhered in the control (untreated) wells.

[6] = system: MCF7 human breast cancer cells; assay: Test (b) time lapse analysis of cell motility; assay type: cell-based
Description: (b) Time Lapse Analysis of Cell Motility
Cells were cultured in 6-well tissue-culture plates and allowed to reach log phase growth. Plates were transferred to the heated stage of an inverted microscope and cell cultures were overlaid with mineral oil to minimise pH changes in the medium during the cell motility analysis. Cell motility was recorded over a period of 6 hours using a video camera coupled to a time lapse video recording system. For quantitation of cell motility, images were captured at 10 minute intervals during video playback and the movement of at least 10 individual cells was tracked using Optimas image analysis software (Media Cybernetics UK, Finchampstead, Berkshire, GB). Cell movement was plotted as either cell position (x-position vs. y-position) or total distance migrated (μm) as a function of time. To determine the directional persistence of cell motility, paths of cells were plotted such that all paths start from the origin.

'Tam-R' cells [7] = assay: Test (e) cell invasion assay; assay type: cell-based; conditions: Homo sapiens, 72 h; read-out: IC50 versus 'Tam-R' cells, Test (e) cell invasion
Description: as §1
A modification of the method previously described by Hiscox et al. (Breast Cancer Research Treatment, 2000, 59, 245-254) was used to study the invasive nature of the breast cancer cells.
Transwell polycarbonate filter membrane inserts (6.5 mm diameter, 8 μm pore size from Costar Inc.) were placed in 24-well tissue-culture plates and were coated with Matrigel (0.4 μg/ml) at ambient temperature overnight in a sterile tissue culture hood. After rehydrating the wells with serum-free RPMI for 1 hour at 37° C., cells were seeded onto the membrane inserts at 5×10^4 cells/well with or without appropriate concentrations of inhibitor compounds (or combinations of inhibitor compounds) and 600 μl of culture medium was added such that the membrane inserts were immersed. The wells were cultured at 37° C. for 72 hours, after which the non-invasive cells and Matrigel were removed from the inside of the wells with a cotton swab. […] Cell invasion was quantified with a fluorescent microscope by viewing 5 separate fields per membrane at 2-fold magnification and counting the number of cells in each field. […]

[8] = system: tamoxifen resistant MCF7 breast cancer cells; conditions: cited from earlier work

| Structure (SMILES) | activity (active dose), Test (i) xenograft growth [1] [mg/kg/day] | IC50 [2] [nM] | IC50 ('Tam-R' cells [3]) [nM] | IC50 [4] [nM] | IC50 [5] [nM] | IC50 [6] [nM] | IC50 ('Tam-R' cells [7]) [nM] | basal and TGFα stimulated growth [8] |
| --- | --- | --- | --- | --- | --- | --- | --- | --- |
| CN1CCN(CCOc2cc(OC3CCOCC3)c3c(Nc4c(Cl)ccc5c4OCO5)ncnc3c2)CC1 [AZD0530, 4-(6-chloro-2,3-methylenedioxyanilino)-7-[2-(4-methylpiperazin-1-yl)ethoxy]-5-tetrahydropyran-4-yloxyquinazoline] | 1 to 200 | 100 to 5000 | ~100 | 100 to 5000 | 100 to 1000 | 100 to 1000 | ~100 | – |
| COc1cc2ncnc(Nc3ccc(F)c(Cl)c3)c2cc1OCCCN1CCOCC1 [ZD1839, N-(3-chloro-4-fluorophenyl)-7-methoxy-6-(3-morpholinopropoxy)quinazolin-4-amine] | – | – | – | – | – | – | – | could be inhibited |
